Source: patent US10100001B2, “Adenylyl cyclase inhibitors for neuropathic and inflammatory pain” (Purdue Research Foundation, priority 2015, dated 2018)

Biological target: T1, AC1 (Homo sapiens, UniProt Q08828)
T1 construct: expressed in transfected cells
Assay: Inhibition of A23187-mediated (Ca2+-stimulated) cAMP accumulation in HEK cells stably expressing AC1
Format: cell-based
Settings: for inhibition at 4 µM / inhibition at 40 µM: HEK293, read-out: AC1 Inhibition Percentage; for inhibition at 4 µM: 4 μM compound; for inhibition at 40 µM: 40 μM compound; for IC50: HEK cells stably expressing AC1, inhibitors 30 min, then 3 μM A23187 with IBMX, average and S.E.M. of at least three independent experiments, read-out: IC50 for inhibition of the A23187-mediated cAMP response of AC1
Procedure: HEK cells stably expressing AC1 were treated with inhibitors for 30 min, and subsequently incubated with 3 μM A23187 in the presence of 2 mM IBMX. Data represent the average and S.E.M. of at least three independent experiments.
A23187 is a Ca2+ ionophore, which promotes Ca2+ binding to calmodulin in the cells and, subsequent stimulation of AC1.
HEK (human embryonic kidney) cells stably expressing human AC1, were cultured in Dubelcco's Modified Eagle Medium (Life Technologies, Grand Island, N.Y.) supplemented with 5% bovine calf serum (Hyclone, Logan, Utah), 5% fetal clone I (Hyclone, Logan, Utah), Antibiotic-Antimycotic (Life Technologies, Grand Island, N.Y.), and G418 (Invivogen, San Diego, Calif.). The cells were grown to confluency in 15 cm disses, harvested using Cell Dissociation Buffer (Life Technologies, Grand Island, N.Y.), and resuspended in 4 ml of fetal bovine serum (Hyclone, Logan, Utah) containing 10% dimethyl sulfoxide (Sigma-Aldrich, St. Louis, Mo.). 1 ml of cell suspension was added to cryovials that were incubated overnight at −80° C. in a CoolCell device (BioCision, Larkspur, Calif.) for cryopreservation. On the following day, cryovials were stored in liquid N2 until the assay day.
Cryopreserved HEK-AC1 cells were thawed in a 37° C. water-bath, resuspended in 10 ml optiMEM (Life Technologies, Grand Island, N.Y.) and centrifuged at 500×g for 5 min. The cells were resuspended in 10 ml optiMEM and the centrifugation step was repeated. Cells were then resuspended in 1 ml optiMEM and counted using a Countess automated cell counter (Life Technologies, Grand Island, N.Y.). Cells were added to a white, flat bottom, low-volume, tissue culture-treated 384 well plate (PerkinElmer, Shelton, Conn.) at a final density of 2500 cells/well. The plate was centrifuged for 1 min at 100×g and incubated in a 37° C. humidified incubator for 1 h. […] Following this incubation A23187 (Sigma-Aldrich, St. Louis, Mo.) (3 μM final concentration) containing 3-isobutyl-1-methylxanthine (Sigma-Aldrich, St. Louis, Mo.) (0.5 mM final concentration) was added. The plate was centrifuged for 1 min at 100×g and incubated at room temperature for 1 h. Cyclic AMP accumulation was measured using Cisbio's dynamic 2 kit (Cisbio Bioassays, Bedford, Mass.) according to the manufacturer's instructions. Plates were analyzed for fluorescent emissions at 620 nm and 665 nm using 330 nm as the excitation wavelength in a Cytation 3 Cell Imaging Multi-Mode Reader (Biotek, Winooski, Vt.), and ratiometric analysis was carried out by dividing the 665 nm emissions by the 620 nm emissions to extrapolate the cAMP concentrations from a cAMP standard curve. The data represent the average of at least three independent experiments ran in duplicate.

T1 sequence (Q08828 whole entry): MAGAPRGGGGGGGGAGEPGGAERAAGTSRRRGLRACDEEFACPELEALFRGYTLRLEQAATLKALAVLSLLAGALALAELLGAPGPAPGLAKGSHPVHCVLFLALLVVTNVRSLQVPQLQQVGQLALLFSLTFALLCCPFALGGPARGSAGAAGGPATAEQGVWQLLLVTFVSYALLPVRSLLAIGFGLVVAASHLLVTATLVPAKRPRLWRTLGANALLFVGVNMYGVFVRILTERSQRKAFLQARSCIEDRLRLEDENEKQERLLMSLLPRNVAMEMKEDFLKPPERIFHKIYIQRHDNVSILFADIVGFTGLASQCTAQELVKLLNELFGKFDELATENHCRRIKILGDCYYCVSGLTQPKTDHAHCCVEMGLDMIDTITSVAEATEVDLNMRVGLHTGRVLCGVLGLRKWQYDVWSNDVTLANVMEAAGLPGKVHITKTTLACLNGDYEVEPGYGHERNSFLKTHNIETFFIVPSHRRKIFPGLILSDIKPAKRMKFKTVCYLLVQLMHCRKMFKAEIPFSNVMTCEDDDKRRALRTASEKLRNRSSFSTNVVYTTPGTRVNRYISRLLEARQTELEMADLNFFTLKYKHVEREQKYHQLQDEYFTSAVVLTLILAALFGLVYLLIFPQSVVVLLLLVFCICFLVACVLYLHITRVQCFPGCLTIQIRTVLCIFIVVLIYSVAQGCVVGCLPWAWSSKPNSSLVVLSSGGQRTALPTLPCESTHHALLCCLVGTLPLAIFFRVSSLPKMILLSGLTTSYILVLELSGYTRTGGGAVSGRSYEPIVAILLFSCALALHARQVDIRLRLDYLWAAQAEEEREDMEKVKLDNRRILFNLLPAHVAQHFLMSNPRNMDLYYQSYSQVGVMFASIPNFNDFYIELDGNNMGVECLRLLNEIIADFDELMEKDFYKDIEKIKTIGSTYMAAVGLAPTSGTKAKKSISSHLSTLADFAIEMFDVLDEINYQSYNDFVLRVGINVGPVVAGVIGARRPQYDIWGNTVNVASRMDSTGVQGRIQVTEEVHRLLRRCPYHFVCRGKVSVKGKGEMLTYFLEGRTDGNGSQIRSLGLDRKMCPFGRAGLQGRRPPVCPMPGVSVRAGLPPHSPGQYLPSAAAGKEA

Compound	inhibition at 4 µM	inhibition at 40 µM	IC50
Cc1ccc(/C=C/CN(CCc2c[nH]c3ccccc23)Cc2ccccc2)cc1 [Compound 7ab, (E)-N-(2-(1H-indol-3-yl)ethyl)-N-benzyl-3-p-tolylprop-2-en-1-amine]	20%	91%	
Fc1ccc(/C=C/CN(CCc2c[nH]c3ccccc23)Cc2ccccc2)cc1 [Compound 7ae, (E)-N-(2-(1H-indol-3-yl)ethyl)-N-benzyl-3-(4-fluorophenyl)prop-2-en-1-amine]	47%	91%	12.9 µM
COc1ccc2c(c1)C(c1ccc(Br)cc1)CN(C/C=C/c1ccc(C)cc1)CC2 (stereo not shown) [Compound 7kb, (E)-1-(4-bromophenyl)-8-methoxy-3-(3-p-tolylallyl)-2,3,4,5-tetrahydro-1H-benzo[d]azepine]	8%	11%	
Fc1ccc(C(c2ccc(F)cc2)N2CCN(C/C=C/c3ccccc3)CC2)cc1 [Compound 3, 1-(bis(4-fluorophenyl)methyl)-4-cinnamylpiperazine, reference compound]	35%	97%	
COc1ccc(/C=C/CN(C)Cc2cccc3ccccc23)cc1OC [Compound 7fk, (E)-3-(3,4-dimethoxyphenyl)-N-methyl-N-(naphthalen-1-ylmethyl)prop-2-en-1-amine]	-14%	33%	
FC(F)(F)c1ccc(/C=C/CN(CCc2c[nH]c3ccccc23)Cc2ccccc2)cc1 [Compound 7ah, (E)-N-(2-(1H-indol-3-yl)ethyl)-N-benzyl-3-(4-(trifluoromethyl)phenyl)prop-2-en-1-amine]	24%	96%	
COc1ccc2c(c1)C(c1ccccc1)CN(C/C=C/c1ccc(C)cc1)CC2 (stereo not shown) [Compound 7jb, (E)-8-methoxy-1-phenyl-3-(3-p-tolylallyl)-2,3,4,5-tetrahydro-1H-benzo[d]azepine]	43%	90%	16.7 µM
Cc1cccc(/C=C/CN(CCc2c[nH]c3ccccc23)Cc2ccccc2)c1 [Compound 7ac, (E)-N-(2-(1H-indol-3-yl)ethyl)-N-benzyl-3-m-tolylprop-2-en-1-amine]	18%	93%	
CN(C/C=C/c1cccc([N+](=O)[O-])c1)Cc1cccc2ccccc12 [Compound 7fl, (E)-N-methyl-N-(naphthalen-1-ylmethyl)-3-(3-nitrophenyl)prop-2-en-1-amine]	-28%	62%	
COC(=O)CCCN(C/C=C/c1ccc(Cl)cc1)Cc1ccc(F)cc1 [Compound 7gc, (E)-methyl 4-((3-(4-chlorophenyl)allyl)(4-fluorobenzyl)amino)butanoate]	-24%	70%	
COC(=O)CCCN(C/C=C/c1ccc(C)cc1)Cc1ccc(F)cc1 [Compound 7gb, (E)-methyl 4-((4-fluorobenzyl)(3-p-tolylallyl)amino)butanoate]	-3%	64%	
Cc1ccc(/C=C/CN2CCCN(S(=O)(=O)c3ccc(C)cc3)CC2)cc1 [Compound 7hb, (E)-1-(3-p-tolylallyl)-4-tosyl-1,4-diazepane]	-26%	27%	
Ic1ccc(/C=C/CN(CCc2c[nH]c3ccccc23)Cc2ccccc2)cc1 [Compound 7ad, (E)-N-(2-(1H-indol-3-yl)ethyl)-N-benzyl-3-(4-iodophenyl)prop-2-en-1-amine]	59%	93%	10.2 µM
Cc1ccccc1/C=C/CN(C)Cc1cccc2ccccc12 [Compound 7fc, (E)-N-methyl-N-(naphthalen-1-ylmethyl)-3-o-tolylprop-2-en-1-amine]	-71%	77%	
Cc1ccc(S(=O)(=O)N2CCCN(C/C=C/c3ccc(Cl)cc3)CC2)cc1 [Compound 7hc, (E)-1-(3-(4-chlorophenyl)allyl)-4-tosyl-1,4-diazepane]	-5.5%	85%	

Results, then the compound that gave them:

inhibition at 4 µM	inhibition at 40 µM	IC50	Compound
4%	83%		CN(C/C=C/c1ccccc1)Cc1cccc2ccccc12 [Compound 1, (E)-N-methyl-N-(naphthalen-1-ylmethyl)-3-phenylprop-2-en-1-amine, reference compound]
57%	96%	6.91 µM	Brc1ccc(/C=C/CN(CCc2c[nH]c3ccccc23)Cc2ccccc2)cc1 [Compound 7ag, (E)-N-(2-(1H-indol-3-yl)ethyl)-N-benzyl-3-(4-bromophenyl)prop-2-en-1-amine]
39%	86%	8.95 µM	C(=C\c1ccccc1)/CN(CCc1c[nH]c2ccccc12)Cc1cccc2ccccc12 [Compound 7c, (E)-N-(2-(1H-indol-3-yl)ethyl)-N-(naphthalen-1-ylmethyl)-3-phenylprop-2-en-1-amine]
-8%	101%		Cn1cc(CCN(C/C=C/c2ccccc2)Cc2ccccc2)c2ccccc21 [Compound 7d, (E)-N-benzyl-N-(2-(1-methyl-1H-indol-3-yl)ethyl)-3-phenylprop-2-en-1-amine]
4%	85%		CN(C/C=C/c1ccc(F)cc1)Cc1cccc2ccccc12 [Compound 7fe, (E)-3-(4-fluorophenyl)-N-methyl-N-(naphthalen-1-ylmethyl)prop-2-en-1-amine]
-9%	75%		C(=C\c1ccccc1)/CN(Cc1ccccc1)Cc1ccccc1 [Compound 7e, (E)-N,N-dibenzyl-3-phenylprop-2-en-1-amine]
-40%	85%		CCOC(=O)c1ccc(/C=C/CN(C)Cc2cccc3ccccc23)cc1 [Compound 7fi, (E)-ethyl 4-(3-(methyl(naphthalen-1-ylmethyl)amino)prop-1-enyl)benzoate]
-61%	93%		CN(C/C=C/c1ccc(Br)cc1)Cc1cccc2ccccc12 [Compound 7fg, (E)-3-(4-bromophenyl)-N-methyl-N-(naphthalen-1-ylmethyl)prop-2-en-1-amine]
-14%	82%		COc1ccc(/C=C/CN(C)Cc2cccc3ccccc23)cc1 [Compound 7fj, (E)-3-(4-methoxyphenyl)-N-methyl-N-(naphthalen-1-ylmethyl)prop-2-en-1-amine]
-26%	95%		Cc1ccc(/C=C/CN(C)Cc2cccc3ccccc23)cc1 [Compound 7fa, (E)-N-methyl-N-(naphthalen-1-ylmethyl)-3-p-tolylprop-2-en-1-amine]
37%	91%		CN(C/C=C/c1ccc(Cl)cc1)Cc1cccc2ccccc12 [Compound 7ff, (E)-3-(4-chlorophenyl)-N-methyl-N-(naphthalen-1-ylmethyl)prop-2-en-1-amine]
30%	87%		CN(C/C=C/c1ccc(C(F)(F)F)cc1)Cc1cccc2ccccc12 [Compound 7fh, (E)-N-methyl-N-(naphthalen-1-ylmethyl)-3-(4-(trifluoromethyl)phenyl)prop-2-en-1-amine]
20%	67%		COC(=O)CCCN(C/C=C/c1ccccc1)Cc1ccc(F)cc1 [Compound 7ga, methyl 4-(cinnamyl(4-fluorobenzyl)amino)butanoate]
